pIC50: −log10 of the molar value.

T1 sequence (P50750 whole entry): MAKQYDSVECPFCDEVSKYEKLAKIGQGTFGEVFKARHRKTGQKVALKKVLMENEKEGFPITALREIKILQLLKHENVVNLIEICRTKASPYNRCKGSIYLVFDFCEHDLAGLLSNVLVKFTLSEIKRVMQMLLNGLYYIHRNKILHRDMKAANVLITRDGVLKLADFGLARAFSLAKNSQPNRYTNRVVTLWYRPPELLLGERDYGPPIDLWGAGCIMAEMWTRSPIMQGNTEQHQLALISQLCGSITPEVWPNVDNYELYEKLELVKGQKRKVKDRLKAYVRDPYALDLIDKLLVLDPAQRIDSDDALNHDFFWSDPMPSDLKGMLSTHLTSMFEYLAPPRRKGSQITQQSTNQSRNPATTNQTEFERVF
T1 sequence (O60563 whole entry partner): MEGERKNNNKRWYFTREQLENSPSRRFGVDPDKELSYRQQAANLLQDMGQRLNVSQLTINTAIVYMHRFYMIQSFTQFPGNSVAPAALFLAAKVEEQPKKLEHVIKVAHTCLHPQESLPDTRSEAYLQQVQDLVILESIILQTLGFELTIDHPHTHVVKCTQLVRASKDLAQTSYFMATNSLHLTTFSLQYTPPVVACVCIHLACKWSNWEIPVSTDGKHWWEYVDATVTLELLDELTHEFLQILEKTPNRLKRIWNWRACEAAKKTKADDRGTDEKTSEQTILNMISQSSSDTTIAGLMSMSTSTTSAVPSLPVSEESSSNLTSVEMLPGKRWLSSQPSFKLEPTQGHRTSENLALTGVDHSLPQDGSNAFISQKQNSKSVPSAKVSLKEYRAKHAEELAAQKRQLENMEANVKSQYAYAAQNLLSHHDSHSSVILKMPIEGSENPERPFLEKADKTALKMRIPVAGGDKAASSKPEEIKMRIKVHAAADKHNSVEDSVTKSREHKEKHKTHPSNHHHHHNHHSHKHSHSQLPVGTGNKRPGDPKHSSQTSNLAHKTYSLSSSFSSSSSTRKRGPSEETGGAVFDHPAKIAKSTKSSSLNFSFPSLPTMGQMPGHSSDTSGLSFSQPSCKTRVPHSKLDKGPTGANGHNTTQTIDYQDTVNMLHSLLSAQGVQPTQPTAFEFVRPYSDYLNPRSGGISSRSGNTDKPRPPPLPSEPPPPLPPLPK

This test addresses T1, CDK9/CyclinT1 (Homo sapiens, UniProt P50750).
T1 construct: purchased ProQinase/Reaction Biology, USA #0371-0345-1
The test is described as follows: CDK9/T1 ADPGlo kinase assay. It counts as biochemical. Particulars: CDK9/CyclinT1 6 nM, ATP 10 microM, PDKtide 40 microM, 120 min RT. The protocol:
The testing compound was evaluated in 12 concentrations in a 1:3 dilution series, starting from 5microM as the highest concentration.
In a white 384 microplate (Greiner bio-one, Austria #784904,) with 2 microL of 3-fold concentrated CDK9/CyclinT1 (ProQinase/Reaction Biology, USA #0371-0345-1, LOT.: 012), final concentration (f.c.) 6 nM, in 1×kinase buffer, 2 microL of compound (3× fold concentrated in f.c. 1.66% DMSO/H2O) was added and incubated at Room Temperature (RT) for 10 min. Then 2 microL of Substrate/ATP-Mix (3×PDKtide f.c. 40 microM, SignalChem Biotech, Canada via Biozol, Eching, Germany #P10-58, LOT.: L2230-7 and 3×UltraPure ATP f.c. 10 microM (ADP Glo Kinase assay, Promega GmbH, Germany #V9102)) were added, mixed and incubated for 120 min at RT.
After incubation time, 5 microL of ADP Glo reagent (ready to use, ADP Glo Kinase assay, Promega GmbH, Germany #V9102) were added, mixed and incubated for 40 min at RT.
In the last step, 10 microL of ADP Glo Detection reagent (ready to use, ADP Glo Kinase assay, Promega GmbH, Germany #V9102) were added, mixed and incubated for 30 min at RT.
GloMax Discover GM3000 Reader (Promega GmbH, Germany 9700000249) was used for the readout.
The inhibitor concentration was plotted against the luminescence to determine the IC50 using XLFit 5.5 (IDBS, Guildford) to fit to a sigmoidal dose response curve with a variable slope.
Broadly, the pIC50 is −log10 of the IC50, conventionally taken in molar units. A low value points to a high IC50. `Fc1cccc(F)c1-c1nc(Nc2cnn([C@H]3CC[C@H](N4CCOCC4)CC3)c2)n2nccc2n1` [Example #68, 2-(2,6-difluorophenyl)-N-(1-((1r,4r)-4-morpholinocyclohexyl)-1H-pyrazol-4-yl)pyrazolo[1,5-a][1,3,5]triazin-4-amine] showed a pIC50 of more than 6.70.

Turning to `Fc1cccc(F)c1-c1nc(NC2CCC(N3CCOCC3)CC2)n2nccc2n1` (stereo not shown) [Example #70, 2-(2,6-difluorophenyl)-N-((1r,4r)-4-morpholinocyclohexyl)pyrazolo[1,5-a][1,3,5]triazin-4-amine], the negative logarithm of the IC50 (pIC50) is more than 7.70.

As to `Fc1cccc(Cl)c1-c1nc(Nc2cnn(C3CCN(C4CCOCC4)CC3)c2)n2nccc2n1` [Example #71, 2-(2-chloro-6-fluorophenyl)-N-(1-(1-(tetrahydro-2H-pyran-4-yl)piperidin-4-yl)-1H-pyrazol-4-yl)pyrazolo[1,5-a][1,3,5]triazin-4-amine], the pIC50 was more than 6.70.

`Fc1cccc(F)c1-c1nc(Nc2cnn(C3CCN(C4CCOCC4)CC3)c2Cl)n2nccc2n1` [Example #73, N-(5-chloro-1-(1-(tetrahydro-2H-pyran-4-yl)piperidin-4-yl)-1H-pyrazol-4-yl)-2-(2,6-difluorophenyl)pyrazolo[1,5-a][1,3,5]triazin-4-amine] gave a pIC50 of more than 6.00.

Regarding `Fc1cccc(F)c1-c1nc(Nc2cnn(C3CCNCC3)c2)n2nccc2n1` [Example #74, 2-(2,6-difluorophenyl)-N-(1-(piperidin-4-yl)-1H-pyrazol-4-yl)pyrazolo[1,5-a][1,3,5]triazin-4-amine], the pIC50 is more than 6.70.

In turn, `Fc1cccc(Cl)c1-c1nc(N[C@H]2CC[C@H](N3CCOCC3)CC2)n2nccc2n1` [Example #76, 2-(2-chloro-6-fluorophenyl)-N-((1r,4r)-4-morpholinocyclohexyl)pyrazolo[1,5-a][1,3,5]triazin-4-amine] gave a negative-log IC50 (pIC50) of more than 6.70.

Take `Cc1cnn2c(Nc3cnn(C4CCN(C5CCOCC5)CC4)c3)nc(-c3c(F)cccc3F)nc12` [Example #77, 2-(2,6-difluorophenyl)-8-methyl-N-(1-(1-(tetrahydro-2H-pyran-4-yl)piperidin-4-yl)-1H-pyrazol-4-yl)pyrazolo[1,5-a][1,3,5]triazin-4-amine]: the pIC50 was more than 6.70.

Turning to `Fc1cccc(F)c1-c1nc(Nc2cnn(C3CCN(CC4CC4)CC3)c2)n2nccc2n1` [Example #80, N-(1-(1-(cyclopropylmethyl)piperidin-4-yl)-1H-pyrazol-4-yl)-2-(2,6-difluorophenyl)pyrazolo[1,5-a][1,3,5]triazin-4-amine], the pIC50 was more than 6.70.

Compound `FCCN1CCC(n2cc(Nc3nc(-c4c(F)cccc4F)nc4ccnn34)cn2)CC1` [Example #81, 2-(2,6-difluorophenyl)-N-(1-(1-(2-fluoroethyl)piperidin-4-yl)-1H-pyrazol-4-yl)pyrazolo[1,5-a][1,3,5]triazin-4-amine] showed a pIC50 of more than 6.70.

`COC(=O)N1CCC(n2cc(Nc3nc(-c4c(F)cccc4F)nc4ccnn34)cn2)CC1` [Example #82, methyl-4-(4-((2-(2,6-difluorophenyl)pyrazolo[1,5-a][1,3,5]triazin-4-yl)amino)-1H-pyrazol-1-yl)piperidine-1-carboxylate] gave a pIC50 of more than 6.00.

As for `Fc1cccc(F)c1-c1nc(Nc2cnn(C3CCN(C4CC4)CC3)c2)n2nccc2n1` [Example #83, N-(1-(1-cyclopropylpiperidin-4-yl)-1H-pyrazol-4-yl)-2-(2,6-difluorophenyl)pyrazolo[1,5-a][1,3,5]triazin-4-amine], the pIC50 is more than 6.70.

As for `Fc1cccc(F)c1-c1nc(Nc2cnn(C3CCN(C4COC4)CC3)c2)n2nccc2n1` [Example #84, 2-(2,6-difluorophenyl)-N-(1-(1-(oxetan-3-yl)piperidin-4-yl)-1H-pyrazol-4-yl)pyrazolo[1,5-a][1,3,5]triazin-4-amine], the pIC50 is more than 6.00.

The compound `C=CCCN1CCC(n2cc(Nc3nc(-c4c(F)cccc4F)nc4ccnn34)cn2)CC1` [Example #87, N-(1-(1-(but-3-en-1-yl)piperidin-4-yl)-1H-pyrazol-4-yl)-2-(2,6-difluorophenyl)pyrazolo[1,5-a][1,3,5]triazin-4-amine] had a pIC50 of more than 6.70.

As for `N#Cc1cnn2c(Nc3cnn(C4CCN(C5CCOCC5)CC4)c3)nc(-c3c(F)cccc3F)nc12` [Example #88, 2-(2,6-difluorophenyl)-4-((1-(1-(tetrahydro-2H-pyran-4-yl)piperidin-4-yl)-1H-pyrazol-4-yl)amino)pyrazolo[1,5-a][1,3,5]triazine-8-carbonitrile], the pIC50 was more than 6.70.

`Fc1cccc(F)c1-c1nc(Nc2cnn(C3CCN(C4CCOCC4)CC3)c2)n2ncc(Cl)c2n1` [Example #92, 8-chloro-2-(2,6-difluorophenyl)-N-(1-(1-(tetrahydro-2H-pyran-4-yl)piperidin-4-yl)-1H-pyrazol-4-yl)pyrazolo[1,5-a][1,3,5]triazin-4-amine] had a pIC50 of more than 7.70.

Compound `N#Cc1cnn2c(N[C@H]3CC[C@H](N4CCOCC4)CC3)nc(-c3c(F)cccc3F)nc12` [Example #93, 2-(2,6-difluorophenyl)-4-(((1r,4r)-4-morpholinocyclohexyl)amino)pyrazolo[1,5-a][1,3,5]triazine-8-carbonitrile] had a pIC50 of more than 6.70.

`Fc1cccc(F)c1-c1nc(Nc2cnn(C3CCN(C4CCOCC4)CC3)c2)n2ncc(Br)c2n1` [Example #94, 8-bromo-2-(2,6-difluorophenyl)-N-(1-(1-(tetrahydro-2H-pyran-4-yl)piperidin-4-yl)-1H-pyrazol-4-yl)pyrazolo[1,5-a][1,3,5]triazin-4-amine]: the pIC50 is more than 6.70.

In turn, `Fc1cccc(F)c1-c1nc(N[C@H]2CC[C@H](N3CCOCC3)CC2)n2ncc(Br)c2n1` [Example #95, 8-bromo-2-(2,6-difluorophenyl)-N-((1r,4r)-4-morpholinocyclohexyl)pyrazolo[1,5-a][1,3,5]triazin-4-amine] showed a pIC50 of more than 7.70.

For `CN1CCC(N2CCC(n3cc(Nc4nc(-c5c(F)cccc5F)nc5c(Cl)cnn45)cn3)CC2)CC1` [Example #96, 8-chloro-2-(2,6-difluorophenyl)-N-(1-(1′-methyl-[1,4′-bipiperidin]-4-yl)-1H-pyrazol-4-yl)pyrazolo[1,5-a][1,3,5]triazin-4-amine], the pIC50 was more than 6.70.

Regarding `CC(C)(C)N1CCN(c2ccc(Nc3nc(-c4c(F)cccc4F)nc4c(Cl)cnn34)cc2)CC1` [Example #97, N-(4-(4-(tert-butyl)piperazin-1-yl)phenyl)-8-chloro-2-(2,6-difluorophenyl)pyrazolo[1,5-a][1,3,5]triazin-4-amine], the pIC50 was more than 6.70.

`O=C(c1ccc(Nc2nc(-c3c(F)cccc3F)nc3c(Cl)cnn23)cc1)N1CCOCC1` [Example #98, (4-((8-chloro-2-(2,6-difluorophenyl)pyrazolo[1,5-a][1,3,5]triazin-4-yl)amino)phenyl)(morpholino)methanone] gave a pIC50 of more than 6.00.

`Fc1cccc(F)c1-c1nc(Nc2cnn(C3CCN(C4CC4)CC3)c2)n2ncc(Cl)c2n1` [Example #99, 8-chloro-N-(1-(1-cyclopropylpiperidin-4-yl)-1H-pyrazol-4-yl)-2-(2,6-difluorophenyl)pyrazolo[1,5-a][1,3,5]triazin-4-amine]: the pIC50 was more than 6.70.
